The source of these data is paper PMC9377253, “Antiproliferative and cytotoxic effects of sesquiterpene lactones isolated from Ambrosia artemisiifolia on human adenocarcinoma and normal cell lines” (Pharmaceutical Biology, 2022).

The nature of data set [1]: MTT cytotoxicity assay (24 h), MRC-5. The format is cell-based. The note with it: human, MRC-5 embryonal lung fibroblast cells, 24 h incubation. Here is the method:
(§1) MRC-5 human embryonal lung fibroblast cell lines (ATCC CCL-171) were purchased from LGC Promochem, Teddington, UK. The cell line was cultured in Eagle’s Minimal Essential Medium (EMEM, containing 4.5 g/L glucose) supplemented with a non-essential amino acid mixture, a selection of vitamins and 10% heat-inactivated foetal bovine serum. The cell lines were incubated at 37 °C, in a 5% CO2, 95% air atmosphere.
(§2) MRC-5 non-cancerous human embryonic lung fibroblast and human colonic adenocarcinoma cell lines (doxorubicin-sensitive Colo 205 and multidrug-resistant Colo 320 colonic adenocarcinoma cells) were used to determine the effect of compounds on cell proliferation and growth. The effects of increasing concentrations of compounds on cell proliferation and growth were tested in 96-well flat-bottomed microtitre plates. The compounds were diluted in a volume of 100 μL of medium.
(§3) The adherent human embryonal lung fibroblast cells were seeded overnight and cultured in 96-well flat-bottomed microtitre plates prior to the assay, using EMEM supplemented with 10% heat-inactivated foetal bovine serum. The density of the cells was adjusted to 6 × 10^3 cells (antiproliferative assay) or 1 × 10^4 cells (cytotoxicity assay) in 100 μL per well, the cells were seeded for 24 h at 37 °C, 5% CO2, then the medium was removed from the plates containing the cells, and the dilutions of compounds (200 µL) previously made in a separate plate were added to the cells in.
(§4) The culture plates were incubated at 37 °C for 72 h (antiproliferative test) or 24 h (cytotoxicity test); at the end of the incubation period, 20 μL of MTT (thiazolyl blue tetrazolium bromide, Sigma, St. Louis, MO, USA) solution (from a stock solution of 5 mg/mL) were added to each well. After incubation at 37 °C for 4 h, 100 μL of sodium dodecyl sulphate (SDS) (Sigma) solution (10% in 0.01 M HCI) were added to each well and the plates were further incubated at 37 °C overnight. Cell growth was determined by measuring the optical density (OD) at 540/630 nm with Multiscan EX ELISA reader (Thermo Labsystems, Cheshire, WA, USA). Inhibition of the cell growth was determined according to the formula below: Inhibition %=100−[OD sample−OD medium control/OD cell control−OD medium control]×100
(§5) Results are expressed in terms of IC50, defined as the inhibitory dose that reduces the growth of the cells exposed to the tested compounds by 50%.
(In general: Tetrazolium assays rely on reduction of a dye to a coloured formazan, in cell work by metabolically active cells.)

For data set [2], the system named is multidrug-resistant Colo 320 colonic adenocarcinoma cells. Briefly: MTT cytotoxicity assay (24 h), Colo 320. The format is cell-based. The note with it: Homo sapiens, COLO 320, 24 h, 24 h incubation, read-out: Cytotoxicity IC50, Colo320. Here is the method: (§6) Human colonic adenocarcinoma cell lines (Colo 205 doxorubicin-sensitive and Colo 320/MDR-LRP multidrug-resistant expressing ABCB1 (MDR1)-LRP), ATCC-CCL-220.1 (Colo 320) and CCL-222 (Colo 205) were purchased from LGC Promochem, Teddington, UK. The cells were cultured in RPMI 1640 medium supplemented with 10% heat-inactivated foetal bovine serum, 2 mM L-glutamine, 1 mM Na-pyruvate and 100 mM Hepes. The cell lines were incubated at 37 °C, in a 5% CO2, 95% air atmosphere. The semi-adherent human colon cancer cells were detached with Trypsin-Versene (EDTA) solution for 5 min at 37 °C.
as §2
(§7) In case of the colonic adenocarcinoma cells, the 2-fold serial dilutions of compounds were prepared in 100 μL of RPMI 1640, horizontally. The semi-adherent colonic adenocarcinoma cells were treated with Trypsin-Versene (EDTA) solution. The density of the cells was adjusted to 6 × 10^3 cells (antiproliferative assay) or 1 × 10^4 cells (cytotoxicity assay) in 100 μL of RPMI 1640 medium, and was added to each well, with the exception of the medium control wells. The final volume of the wells containing compounds and cells was 200 μL.
as §4, §5

Data set [3] shares this test system. Briefly: MTT antiproliferative assay (72 h), Colo 320. The format is cell-based, human. As to conditions: for IC50: MTT, 72 h incubation, read-out: Antiproliferative IC50, Colo320. Here is the method: as §6, §2, §7, §4, §5
Data set [4] relates to multidrug-resistant Colo 320 colonic adenocarcinoma cells expressing the ABCB1 transporter. As to the kind of experiment: Checkerboard combination assay with doxorubicin. The format is cell-based, human. The note with it: for drug interaction with doxorubicin: Colo320, at certain concentrations. On the procedure: A checkerboard microplate method was applied to study the effect of drug interactions between the compounds and doxorubicin. The assay was carried out using multidrug-resistant Colo 320 colonic adenocarcinoma cells expressing the ABCB1 transporter. The final concentration of the chemotherapeutic agent doxorubicin used in the combination experiment was chosen in accordance with their antiproliferative activity previously determined. The dilutions of the chemotherapeutic drug were made in a horizontal direction in 100 μL, and the dilutions of the compounds vertically in the microtitre plate in 50 μL volume. The cells were re-suspended in culture medium and distributed into each well in 50 μL containing 6 × 10^3 cells each. The plates were incubated for 72 h at 37 °C in 5% CO2 atmosphere. The cell growth rate was determined after MTT staining. At the end of the incubation period, 20 μL of MTT (thiazolyl blue tetrazolium bromide, Sigma) solution (from a stock solution of 5 mg/mL) was added to each well. After incubation at 37 °C for 4 h, 100 μL of SDS (Sigma-Aldrich, St. Louis, MO, USA) solution (10% in 0.01 M HCl; Merck, Darmstadt, Germany) were added to each well and the plates were further incubated at 37 °C overnight. OD was measured at 540/630 nm with Multiscan EX ELISA reader (Thermo Labsystems, Cheshire, WA). Combination index (CI) values at 50% of the growth inhibition dose (ED50), were determined using CompuSyn software (ComboSyn, Inc., Paramus, NJ) to plot four to five data points to each ratio.

In data set [5] the test system is MRC-5 human embryonal lung fibroblast cell line. As to the kind of experiment: MTT antiproliferative assay (72 h), MRC-5. The format is cell-based. On the procedure: as §1, §2, §3, §4, §5
The test system of data set [6] is doxorubicin-sensitive Colo 205 colonic adenocarcinoma cells. As to the kind of experiment: MTT cytotoxicity assay (24 h), Colo 205. The format is cell-based, human. The note with it: Homo sapiens, COLO 205; MTT, 24 h incubation; read-out: Cytotoxicity IC50, Colo205. Here is the method: as §6, §2, §7, §4, §5
For data set [7] the test system is unchanged. As to the kind of experiment: MTT antiproliferative assay (72 h), Colo 205. The format is cell-based, human. As to conditions: read-out: Antiproliferative IC50, Colo205. On the procedure:
as §6, §2, §7, §4, §5

In data set [8] the test system is NF-κB. Also noted: method as in Sotillo et al. [2017]. As to conditions: ref Sotillo et al. [2017]; cited from earlier work.
The subject of data set [9] is breast cancer cell lines (MCF-7, JIMT-1 and HCC1937). Also noted: method as in Sotillo et al. [2017]. As to conditions: ref Sotillo et al. [2017]; cited from earlier work.
[10] abbreviates: Homo sapiens, MRC5, 72 h incubation.
Setting [11] is: Homo sapiens, COLO 205, 72 h incubation.

Each structure is given as a SMILES string.

In turn, `C=C1C(=O)O[C@@H]2C[C@H](C)[C@]3(O)CCC(=O)[C@@]3(C)C[C@H]12` [Compound 3, peruvin] registered a half-maximal inhibitory concentration (IC50) at 24 h in data set [1] of 11.9 ± 1.45 µM. For the same compound, the concentration for half-maximal inhibition (IC50) amounted to 82.4 ± 1.17 µM in data set [2]; 21.2 ± 0.72 µM in [3] (Homo sapiens, COLO 320, 72 h); 26.4 ± 1.3 µM in [5] (setting [10]); 64.4 ± 1.78 µM in [6]; 26.4 ± 1.12 µM in data set [7] (setting [11]). The Type of interaction entry in data set [4] (starting concentration 65 µM, ratio 7.54:1) is reported as “Moderate antagonism”; in data set [4] (starting concentration 65 µM, ratio 15.08:1) it was “Antagonism”; in data set [4] (starting concentration 65 µM, ratio 30.16:1), “Antagonism”; in [4] (starting concentration 65 µM, ratio 60.32.1), “Moderate antagonism”; in data set [4] (starting concentration 65 µM, ratio 120.64:1), “Antagonism”; in data set [4] (starting concentration 65 µM, ratio 241.28:1), “Additive effect”.
Compound `C=C1C(=O)O[C@@H]2[C@H]1CCC(C)=C(CCC(=O)OC)[C@@]2(C)O` [Compound 5, 1′-noraltamisin] gave an IC50 at 24 h in data set [1] of more than 100 µM. Besides, the IC50 in data set [2] was more than 100 µM; in data set [3] (listed as 1′-Noraltamisin) it was 8.78 µM; in [3], more than 100 µM; in data set [5] (setting [10]), more than 100 µM; in [6] it was more than 100 µM; in data set [7] (setting [11]), more than 100 µM. Also, the Type of interaction entry was “Antagonism” in [4] (starting concentration 30 µM, ratio 3.48:1); “Additive effect” in data set [4] (starting concentration 30 µM, ratio 6.69:1); “Slight synergism” in data set [4] (starting concentration 30 µM, ratio 13.92:1); “Additive effect” in [4] (starting concentration 30 µM, ratio 27.84:1); “Moderate antagonism” in [4] (starting concentration 30 µM, ratio 55.68:1); “Additive effect” in data set [4] (starting concentration 30 µM, ratio 111.36:1).
With `C=C1C(=O)O[C@@H]2[C@H]1CCC(C)=C1CCC(=O)O[C@]12C` [Compound 6, psilostachyin B], the “selectivity index (SI), antiproliferative” value in data set [3] (Colo320 versus MRC-5, cell proliferation inhibition) is on record as 4.98. The figures for the IC50 in [3], in data set [5] (72 h incubation) and in [7] (72 h incubation) were 5.29 ± 0.15 µM, 26.4 ± 0.81 µM and 11 ± 0.56 µM, respectively. The Type of interaction result in [4] (starting concentration 100 µM, ratio 11.6:1) is “Syn”; in [4] (starting concentration 100 µM, ratio 23.2:1), “Syn”; in [4] (starting concentration 100 µM, ratio 46.4:1) it was “Antagonism”; in data set [4] (starting concentration 100 µM, ratio 92.8:1) it was “Slight antagonism”; in [4] (starting concentration 100 µM, ratio 185.6:1) it was “Moderate ant”; in [4] (starting concentration 100 µM, ratio 371.2:1), “Antagonism”.
Regarding `C=C1C(=O)O[C@@H]2[C@H]1CC[C@H](C)[C@H](CCC(=O)OC)[C@@]2(C)O` [Compound 7, 1,10-dihydro-1′-noraltamisin], in [1], the half-inhibitory concentration (IC50) at 24 h was more than 100 µM. The IC50 in data set [2] worked out at 86.6 ± 1.06 µM; in data set [3] (Homo sapiens, COLO 320, 72 h) it was 34.5 ± 2.07 µM; in data set [5] (setting [10]), 39.8 ± 0.53 µM; in [6], 53.6 ± 0.87 µM; in data set [7] (setting [11]), 17 ± 1.99 µM. The “drug interaction with doxorubicin” value in [4] is listed as “synergistic effects”. Besides, the Type of interaction entry is reported as “Very strong syn” in [4] (starting concentration 150 µM, ratio 17.42:1); “Moderate syn” in data set [4] (starting concentration 150 µM, ratio 34.84:1); “Moderate syn” in data set [4] (starting concentration 150 µM, ratio 69.68:1); “Moderate syn” in data set [4] (starting concentration 150 µM, ratio 139.36:1); “Moderate syn” in data set [4] (starting concentration 150 µM, ratio 278.72:1); “Syn” in data set [4] (starting concentration 150 µM, ratio 557.44:1).
In data set [1], `COc1c(O)cc2oc(-c3ccc(O)c(O)c3)c(OC)c(=O)c2c1O` [Compound 8, axillarin] registered an IC50 at 24 h of more than 100 µM. The 50% inhibitory concentration (IC50) in data set [2] was more than 100 µM; in data set [3] (Homo sapiens, COLO 320, 72 h), 50.4 ± 2.98 µM; in data set [5] (setting [10]) it was 4.03 ± 0.56 µM; in data set [6], more than 100 µM; in [7] (setting [11]), 66.8 ± 0.96 µM. In addition, in data set [4], the “drug interaction with doxorubicin” value is recorded as “synergistic effects”.
Consider `COc1cccc2c1C(=O)c1c(O)c3c(c(O)c1C2=O)C[C@@](O)(C(=O)CO)C[C@@H]3O[C@H]1C[C@H](N)[C@H](O)[C@H](C)O1` [Doxorubicin, doxorubicin, reference compound], for which the half-inhibitory concentration (IC50) in data set [3] (Homo sapiens, COLO 320, 72 h) came to 0.14 ± 0.03 µM; in [5] (setting [10]), 0.53 ± 0.06 µM; in data set [7] (setting [11]) it was 0.24 ± 0.03 µM.
As for `C=C1C(=O)O[C@@H]2[C@H]1CC[C@H](C)[C@@H]1C=CC(=O)[C@@]21C` [ambrosin], in data set [8], the “TNF-α-induced translocation of NF-κB” value is listed as “inhibited”. In addition, the “cytotoxicity to breast cancer cell lines” value in [9] is listed as “cytotoxic”.
In the case of `C=C1C(=O)O[C@@H]2[C@H]1CC[C@H](C)[C@]1(O)CCC(=O)[C@@]21C` [coronopilin], the “TNF-α-induced translocation of NF-κB” value in data set [8] is reported as “inhibited”. Besides, the “cytotoxicity to breast cancer cell lines” value in data set [9] was “cytotoxic”.
In the case of `C=C1C(=O)O[C@@H]2[C@H]1CC[C@H](C)[C@@H]1CCC(=O)[C@@]21C` [damsin], in data set [8], the “TNF-α-induced translocation of NF-κB” value is “inhibited”. For the same compound, in data set [9], the “cytotoxicity to breast cancer cell lines” value is recorded as “cytotoxic”.

As usually defined, the IC50 is the concentration needed to halve the response being measured.
